Assays:
Nrf2 [1] = biological target: T1, Nrf2 (Homo sapiens, UniProt Q16236); experiment: Nrf2 agonist reporter assay (native receptor, ARE-luciferase, CV1 cells); assay type: cell-based; set-up: comprising either the native receptor (Nrf2 and NF-κB); expressed in transfected cells; host or cells: CV1
T1 sequence (Q16236 1-605): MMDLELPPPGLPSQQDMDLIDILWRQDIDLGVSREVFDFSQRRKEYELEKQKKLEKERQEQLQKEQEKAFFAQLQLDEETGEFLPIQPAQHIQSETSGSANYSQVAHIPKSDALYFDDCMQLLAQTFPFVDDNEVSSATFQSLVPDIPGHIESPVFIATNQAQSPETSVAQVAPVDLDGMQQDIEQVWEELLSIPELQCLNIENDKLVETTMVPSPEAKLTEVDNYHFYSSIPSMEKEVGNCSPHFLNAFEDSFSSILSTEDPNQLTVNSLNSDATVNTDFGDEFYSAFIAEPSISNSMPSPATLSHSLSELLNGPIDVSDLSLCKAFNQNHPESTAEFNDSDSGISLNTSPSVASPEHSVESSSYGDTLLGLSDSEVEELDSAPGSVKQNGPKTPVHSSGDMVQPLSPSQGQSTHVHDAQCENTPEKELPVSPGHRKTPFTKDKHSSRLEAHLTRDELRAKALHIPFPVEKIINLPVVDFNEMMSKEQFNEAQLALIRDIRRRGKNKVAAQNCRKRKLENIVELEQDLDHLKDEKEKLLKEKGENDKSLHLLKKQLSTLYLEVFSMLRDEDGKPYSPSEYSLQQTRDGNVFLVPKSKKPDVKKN

Nrf2 [2] = biological target: T1, Nrf2; experiment: Nrf2 signaling fluorescent reporter assay in human retinal epithelial cell line; assay type: cell-based; set-up: host or cells: human retinal epithelial cell line

O=C(O)CCCCC1CCSS1 (racemic) [Alpha lipoic acid, alpha lipoic acid]
Nrf2 Fold-Activation (Nrf2 [1]; 1.42 μg/ml active ingredient): 1.4 fold
Nrf2 Fold-Activation (Nrf2 [1]; 4.25 μg/ml active ingredient): 1.4 fold
Nrf2 Fold-Activation (Nrf2 [1]; 12.7 μg/ml active ingredient): 1.5 fold
Nrf2 Fold-Activation (Nrf2 [1]; 38.23 μg/ml active ingredient): 1.5 fold
Nrf2 Fold-Activation (Nrf2 [1]; 114.70 μg/ml active ingredient): 2.4 fold
agonist activity against human Nrf2 (Nrf2 [1]; at the concentrations tested): very low-level agonist activity
activation of Nrf2 (Nrf2 [2]; 100 μM and 30 μM against a control): demonstrated activation of Nrf2 at both 100 μM and 30 μM
minimum inducing concentration (Nrf2) (Nrf2 [2]; human retinal epithelial cell line): 1.75 µM

Source: patent US20180008573A1, “METHODS AND COMPOSITIONS FOR REDUCING DAMAGE ASSOCIATED WITH OXIDATIVE PHOSPHORYLATION” (USANA Health Sciences, Inc., priority 2016, published 2018)
